What was measured:
Experiment in all cases: Growth in liquid media in presence of test compound
Assay type in all cases: cell-based
[1] = tested on: Mycobacterium tuberculosis (H37Rv)
[2] = tested on: Candida albicans (ATCC 90028)
[3] = tested on: Escherichia coli (ATCC 25922)
[4] = tested on: Pseudomonas aeruginosa (ATCC 27853)
[5] = tested on: Staphylococcus aureus (ATCC 25923)
[6] = tested on: Streptococcus pyogenes (ATCC 19615)

SMILES: CC1(C)C2CC3OB([C@@H](CNC(=O)[C@@H](N)Cc4ccccc4)Cc4ccc(F)cc4)O[C@]3(C)C1C2.Cl (stereo partly drawn) [Compound 49]
- Growth in the presence of test compound, M. tuberculosis ([1]; 5 mg/L): ±
- Growth in the presence of test compound, M. tuberculosis ([1]; 50 mg/L): −
- Growth in the presence of test compound, M. tuberculosis ([1]; 500 mg/L): −
- Growth in the presence of test compound, C. albicans ([2]; 5 mg/L): +
- Growth in the presence of test compound, C. albicans ([2]; 50 mg/L): +
- Growth in the presence of test compound, C. albicans ([2]; 500 mg/L): +
- Growth in the presence of test compound, E. coli ([3]; 5 mg/L): +
- Growth in the presence of test compound, E. coli ([3]; 50 mg/L): +
- Growth in the presence of test compound, E. coli ([3]; 500 mg/L): +
- Growth in the presence of test compound, P. aeruginosa ([4]; 5 mg/L): +
- Growth in the presence of test compound, P. aeruginosa ([4]; 50 mg/L): +
- Growth in the presence of test compound, P. aeruginosa ([4]; 500 mg/L): +
- Growth in the presence of test compound, S. aureus ([5]; 5 mg/L): +
- Growth in the presence of test compound, S. aureus ([5]; 50 mg/L): +
- Growth in the presence of test compound, S. aureus ([5]; 500 mg/L): +
- Growth in the presence of test compound, S. pyogenes ([6]; 5 mg/L): +
- Growth in the presence of test compound, S. pyogenes ([6]; 50 mg/L): +
- Growth in the presence of test compound, S. pyogenes ([6]; 500 mg/L): +

SMILES: Cl.N[C@@H](Cc1ccccc1)C(=O)NC[C@@H](Cc1ccc(F)cc1)B(O)O [Compound 50]
- Growth in the presence of test compound, M. tuberculosis ([1]; 5 mg/L): ±
- Growth in the presence of test compound, M. tuberculosis ([1]; 50 mg/L): −
- Growth in the presence of test compound, M. tuberculosis ([1]; 500 mg/L): −
- Growth in the presence of test compound, C. albicans ([2]; 5 mg/L): +
- Growth in the presence of test compound, C. albicans ([2]; 50 mg/L): +
- Growth in the presence of test compound, C. albicans ([2]; 500 mg/L): +
- Growth in the presence of test compound, E. coli ([3]; 5 mg/L): +
- Growth in the presence of test compound, E. coli ([3]; 50 mg/L): +
- Growth in the presence of test compound, E. coli ([3]; 500 mg/L): −
- Growth in the presence of test compound, P. aeruginosa ([4]; 5 mg/L): +
- Growth in the presence of test compound, P. aeruginosa ([4]; 50 mg/L): +
- Growth in the presence of test compound, P. aeruginosa ([4]; 500 mg/L): ±
- Growth in the presence of test compound, S. aureus ([5]; 5 mg/L): +
- Growth in the presence of test compound, S. aureus ([5]; 50 mg/L): +
- Growth in the presence of test compound, S. aureus ([5]; 500 mg/L): −
- Growth in the presence of test compound, S. pyogenes ([6]; 5 mg/L): +
- Growth in the presence of test compound, S. pyogenes ([6]; 50 mg/L): +
- Growth in the presence of test compound, S. pyogenes ([6]; 500 mg/L): −

SMILES: CC1(C)C2CC3OB(C(CNC(=O)C(N)CCCCN)Cc4ccc(F)cc4)OC3(C)C1C2.Cl.Cl (stereo not drawn) [Compound 51]
- Growth in the presence of test compound, M. tuberculosis ([1]; 5 mg/L): +
- Growth in the presence of test compound, M. tuberculosis ([1]; 50 mg/L): −
- Growth in the presence of test compound, M. tuberculosis ([1]; 500 mg/L): −
- Growth in the presence of test compound, C. albicans ([2]; 5 mg/L): +
- Growth in the presence of test compound, C. albicans ([2]; 50 mg/L): +
- Growth in the presence of test compound, C. albicans ([2]; 500 mg/L): −
- Growth in the presence of test compound, E. coli ([3]; 5 mg/L): +
- Growth in the presence of test compound, E. coli ([3]; 50 mg/L): +
- Growth in the presence of test compound, E. coli ([3]; 500 mg/L): −
- Growth in the presence of test compound, P. aeruginosa ([4]; 5 mg/L): +
- Growth in the presence of test compound, P. aeruginosa ([4]; 50 mg/L): +
- Growth in the presence of test compound, P. aeruginosa ([4]; 500 mg/L): −
- Growth in the presence of test compound, S. aureus ([5]; 5 mg/L): +
- Growth in the presence of test compound, S. aureus ([5]; 50 mg/L): +
- Growth in the presence of test compound, S. aureus ([5]; 500 mg/L): −
- Growth in the presence of test compound, S. pyogenes ([6]; 5 mg/L): +
- Growth in the presence of test compound, S. pyogenes ([6]; 50 mg/L): +
- Growth in the presence of test compound, S. pyogenes ([6]; 500 mg/L): −

SMILES: Cl.Cl.NCCCC[C@H](N)C(=O)NC[C@@H](Cc1ccc(OC(F)(F)F)cc1)B(O)O [Compound 52]
- Growth in the presence of test compound, M. tuberculosis ([1]; 5 mg/L): ±
- Growth in the presence of test compound, M. tuberculosis ([1]; 50 mg/L): ±
- Growth in the presence of test compound, M. tuberculosis ([1]; 500 mg/L): −
- Growth in the presence of test compound, C. albicans ([2]; 5 mg/L): +
- Growth in the presence of test compound, C. albicans ([2]; 50 mg/L): +
- Growth in the presence of test compound, C. albicans ([2]; 500 mg/L): −
- Growth in the presence of test compound, E. coli ([3]; 5 mg/L): +
- Growth in the presence of test compound, E. coli ([3]; 50 mg/L): +
- Growth in the presence of test compound, E. coli ([3]; 500 mg/L): +
- Growth in the presence of test compound, P. aeruginosa ([4]; 5 mg/L): +
- Growth in the presence of test compound, P. aeruginosa ([4]; 50 mg/L): +
- Growth in the presence of test compound, P. aeruginosa ([4]; 500 mg/L): +
- Growth in the presence of test compound, S. aureus ([5]; 5 mg/L): +
- Growth in the presence of test compound, S. aureus ([5]; 50 mg/L): +
- Growth in the presence of test compound, S. aureus ([5]; 500 mg/L): +
- Growth in the presence of test compound, S. pyogenes ([6]; 5 mg/L): +
- Growth in the presence of test compound, S. pyogenes ([6]; 50 mg/L): +
- Growth in the presence of test compound, S. pyogenes ([6]; 500 mg/L): ±

SMILES: CC1(C)C2CC3OB(C(CNC(=O)C(N)CCCCN)Cc4ccc(OC(F)(F)F)cc4)OC3(C)C1C2.Cl.Cl (stereo not drawn) [Compound 53]
- Growth in the presence of test compound, M. tuberculosis ([1]; 5 mg/L): ±
- Growth in the presence of test compound, M. tuberculosis ([1]; 50 mg/L): −
- Growth in the presence of test compound, M. tuberculosis ([1]; 500 mg/L): −
- Growth in the presence of test compound, C. albicans ([2]; 5 mg/L): +
- Growth in the presence of test compound, C. albicans ([2]; 50 mg/L): +
- Growth in the presence of test compound, C. albicans ([2]; 500 mg/L): −
- Growth in the presence of test compound, E. coli ([3]; 5 mg/L): +
- Growth in the presence of test compound, E. coli ([3]; 50 mg/L): +
- Growth in the presence of test compound, E. coli ([3]; 500 mg/L): +
- Growth in the presence of test compound, P. aeruginosa ([4]; 5 mg/L): +
- Growth in the presence of test compound, P. aeruginosa ([4]; 50 mg/L): +
- Growth in the presence of test compound, P. aeruginosa ([4]; 500 mg/L): −
- Growth in the presence of test compound, S. aureus ([5]; 5 mg/L): +
- Growth in the presence of test compound, S. aureus ([5]; 50 mg/L): +
- Growth in the presence of test compound, S. aureus ([5]; 500 mg/L): +
- Growth in the presence of test compound, S. pyogenes ([6]; 5 mg/L): +
- Growth in the presence of test compound, S. pyogenes ([6]; 50 mg/L): +
- Growth in the presence of test compound, S. pyogenes ([6]; 500 mg/L): −
